System: broomrape
Experiment: Field experiment: reduction of broomrape biomass by BIP in irrigation water before planting host crops
Type: in vivo, Orobanche
Description: Testing was performed to determine the effect of BIP in different plant species as host crops (faba bean, tomato, and potato), soil type (sand soil and light clay soil), application time (late October and late February), and different climactic regions (Al Behera governate and Al Noubareia), using various concentrations of the substrate (100-500 ppm) to increase the inhibitory effect. […] Thus, BIP, when formulated and administered at 100-500 ppm with the irrigation water is an effective bio agent for controlling broomrape.

For `CCCCOC(=O)c1ccccc1C(=O)OCC(C)C` [BIP, butylisobutylphthalate], the reduced broomrape biomass (300 ppm in irrigation water 8-10 days before cultivation, light clay soil for faba beans and potato, sand soil for faba bean, 20th of October) was 65%, the “reduction in broomrape biomass” value (400 ppm in irrigation water 10 days before planting, sand soil, 15th of February, tomato plants) was 69% and the “increase of inhibition effect relative to the activity observed at 400 ppm” value (BIP 500 ppm versus 400 ppm) was ≤ 10%. The “% Reduction Broomrape Biomass” value (Faba bean (Misr-3), cultivation October, light clay soil, BIP 300 ppm) was 65.0%, the “% Reduction Broomrape Biomass” value (Faba bean (Misr-3), cultivation October, sandy soil, BIP 300 ppm) was 59.8% and the “% Reduction Broomrape Biomass” value (Potato (Yarla), cultivation September, light clay soil, BIP 325 ppm) was 62.3%. For the same compound, the “% Reduction Broomrape Biomass” value (Tomato (Star Valley), cultivation February, sandy soil, BIP 400 ppm) was 71.8% and the reduction of broomrape (lower concentrations of BIP (100-200 ppm)) was 15%-18%.

— US11944094B1, “Seed germination activator for control of broomrape” (KING FAISAL UNIVERSITY, priority 2023, dated 2024)
